Assays:
[1] = biological target: Cbl-b (Homo sapiens (Human), UniProt Q13191); assay: Cbl-b LCK Ub TR-FRET assay (Cbl-b Lck HTRF); assay type: biochemical
Method in brief: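 Biotin-Cbl-b preincubated with compound (10-point 3-fold series) 60 min, then His-LCK with 1 mM ATP (2× mixture) added for 90 min at room temperature. Ubiquitination detected by TR-FRET using HA-ubiquitin/UBE2D2 adduct, anti-HA-D2 and streptavidin-Eu; IC50 normalised to no-LCK and DMSO controls.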

[2] = biological target: c-Cbl (Homo sapiens (Human), UniProt P22681); assay: C-Cbl LCK Ub TR-FRET assay (c-cbl Lck HTRF); assay type: biochemical; details: for (fold-selectivity): C-cbl Lck HTRF IC50 relative to Cbl-b Lck HTRF IC50
c-Cbl, sequence (P22681 47-435): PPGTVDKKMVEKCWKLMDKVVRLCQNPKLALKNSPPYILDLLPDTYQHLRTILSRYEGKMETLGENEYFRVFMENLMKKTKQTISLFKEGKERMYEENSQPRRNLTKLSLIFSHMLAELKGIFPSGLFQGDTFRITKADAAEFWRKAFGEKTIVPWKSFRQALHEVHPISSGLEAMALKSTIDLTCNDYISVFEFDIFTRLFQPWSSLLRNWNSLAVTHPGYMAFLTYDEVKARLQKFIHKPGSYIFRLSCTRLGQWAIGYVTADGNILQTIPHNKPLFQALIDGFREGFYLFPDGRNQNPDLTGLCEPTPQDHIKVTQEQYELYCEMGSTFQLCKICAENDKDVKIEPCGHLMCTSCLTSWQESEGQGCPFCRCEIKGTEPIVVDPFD
Method in brief: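 Detection reagents added, brief spin, 20 min RT. IC50 fit normalized to no-LCK (low) and DMSO (high) controls.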

Cbl-b, sequence (Q13191 40-426): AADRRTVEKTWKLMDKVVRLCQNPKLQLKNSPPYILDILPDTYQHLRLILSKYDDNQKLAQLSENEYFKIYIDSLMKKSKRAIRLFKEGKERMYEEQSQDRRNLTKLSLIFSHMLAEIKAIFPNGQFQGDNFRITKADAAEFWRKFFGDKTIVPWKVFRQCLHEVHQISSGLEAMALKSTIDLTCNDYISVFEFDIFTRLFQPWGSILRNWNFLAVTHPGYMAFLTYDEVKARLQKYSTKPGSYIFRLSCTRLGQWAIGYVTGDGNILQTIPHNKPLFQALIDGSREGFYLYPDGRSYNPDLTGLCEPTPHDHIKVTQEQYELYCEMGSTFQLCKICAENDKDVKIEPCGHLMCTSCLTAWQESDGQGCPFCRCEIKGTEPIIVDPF

With `COC1(C)CN(Cc2cc3c(c(C(F)(F)F)c2)CN(c2cccc(C4([C@H](F)c5nncn5C)COC4)c2)C3=O)C1` [Compound 180, (S)-2-(3-(3-(fluoro(4-methyl-4H-1,2,4-triazol-3-yl)methyl)oxetan-3-yl)phenyl)-6-((3-methoxy-3-methylazetidin-1-yl)methyl)-4-(trifluoromethyl)isoindolin-1-one] the IC50 [1] was 220 nM, the IC50 [2] was 430 nM and the “(fold-selectivity)” value [2] was 1.9x.

With `CCOc1cc(C2(Cc3nncn3C)CCC2)cc(N2Cc3c(cc(CN4CCN(C)C[C@@H]4C(C)C)cc3C(F)(F)F)C2=O)n1` [Compound 404, (S)-2-(6-ethoxy-4-(1-((4-methyl-4H-1,2,4-triazol-3-yl)methyl)cyclobutyl)pyridin-2-yl)-6-((2-isopropyl-4-methylpiperazin-1 - yl)methyl)-4-(trifluoromethyl)isoindolin-1-one] the IC50 [1] was 10 nM, the IC50 [2] was 5.4 nM and the “(fold-selectivity)” value [2] was “(0.54x)”.

`Cn1cnnc1CC1(c2cc(-c3ccc4ccccc4c3)nc(N3Cc4c(cc(CNC5(C)CCC5)cc4C(F)(F)F)C3=O)c2)CCC1` [Compound 350, 2-(4-(1-((4-methyl-4H-1,2,4-triazol-3-yl)methyl)cyclobutyl)-6-(naphthalen-2-yl)pyridin-2-yl)-6-(((1-methylcyclobutyl)amino)methyl)-4-(trifluoromethyl)isoindolin-1-one] was tested, and the IC50 [1] was 28 nM, the IC50 [2] was 16 nM and the “(fold-selectivity)” value [2] was “(0.57x)”.

`CN1CC2CC(C1)N2Cc1cc2c(c(C(F)(F)F)c1)CN(c1cccc(C3(Cc4nncn4C)CC(F)(F)C3)c1)C2=O` [Compound 412, 2-(3-(3,3-difluoro-1-((4-methyl-4H-1,2,4-triazol-3-yl)methyl)cyclobutyl)phenyl)-6-((3-methyl-3,6-diazabicyclo[3.1.1]heptan-6-yl)methyl)-4-(trifluoromethyl)isoindolin-1-one] was tested, and the IC50 [1] was 50 nM, the IC50 [2] was 51 nM and the “(fold-selectivity)” value [2] was “(1.1x)”.

For `Cn1cnnc1CC1(c2cccc(N3Cc4c(cc(CN5CCC[C@](C)(O)C5)cc4C(F)(F)F)C3=O)c2)CC(F)(F)C1` [Compound 440, (S)-2-(3-(3,3-difluoro-1-((4-methyl-4H-1,2,4-triazol-3-yl)methyl)cyclobutyl)phenyl)-6-((3-hydroxy-3-methylpiperidin-1-yl)methyl)-4-(trifluoromethyl)isoindolin-1-one], the IC50 [1] was 140 nM, the IC50 [2] was 110 nM and the “(fold-selectivity)” value [2] was “(0.79x)”.

`Cn1cnnc1CC1(c2cc(NCCC(F)(F)F)nc(N3Cc4c(cccc4C(F)(F)F)C3=O)c2)COC1` [Compound 488, 2-(4-(3-((4-methyl-4H-1,2,4-triazol-3-yl)methyl)oxetan-3-yl)-6-((3,3,3-trifluoropropyl)amino)pyridin-2-yl)-4-(trifluoromethyl)isoindolin-1-one] was tested, and the IC50 [1] was 1900 nM, the IC50 [2] was 12500 nM and the “(fold-selectivity)” value [2] was “(6.4x)”.

In the case of `Cn1cnnc1CC1(c2cc(NCC(F)(F)CO)nc(N3Cc4c(cc(CNC5(C)CCC5)cc4C(F)(F)F)C3=O)c2)CCC1` [Compound 317, 2-(6-((2,2-difluoro-3-hydroxypropyl)amino)-4-(1-((4-methyl-4H-1,2,4-triazol-3-yl)methyl)cyclobutyl)pyridin-2-yl)-6-(((1-methylcyclobutyl)amino)methyl)-4-(trifluoromethyl)isoindolin-1-one], the IC50 [1] is reported as 22 nM, the IC50 [2] is reported as 27 nM and the “(fold-selectivity)” value [2] is reported as “(1.2x)”.

For `CC(C)[C@H]1CN(C)CCN1Cc1cc2c(c(C(F)(F)F)c1)CN(c1cccc(C3([C@H](F)c4nncn4-c4ccccc4)COC3)c1)C2=O` [Compound 260, 2-(3-(3-((S)-fluoro(4-phenyl-4H-1,2,4-triazol-3-yl)methyl)oxetan-3-yl)phenyl)-6-(((S)-2-isopropyl-4-methylpiperazin-1-yl)methyl)-4-(trifluoromethyl)isoindolin-1-one], the IC50 [1] was 5600 nM, the IC50 [2] was 8300 nM and the “(fold-selectivity)” value [2] was “(1.5x)”.

In the case of `Cn1cnnc1[C@H](F)C1(c2cccc(N3Cc4c(cc([C@@H](N)C5CCC5)cc4C(F)(F)F)C3=O)c2)COC1` [Compound 391, 6-((S)-amino(cyclobutyl)methyl)-2-(3-(3-((R)-fluoro(4-methyl-4H-1,2,4-triazol-3-yl)methyl)oxetan-3-yl)phenyl)-4-(trifluoromethyl)isoindolin-1-one], the IC50 [1] is reported as 33 nM, the IC50 [2] is reported as 63 nM and the “(fold-selectivity)” value [2] is reported as “(1.9x)”.

For `CC(C)[C@@H]1CN(Cc2cc3c(c(C(F)(F)F)c2)CN(c2cccc(C4(Cc5nncn5C)CC(F)(F)C4)c2)C3=O)CCN1C` [Compound 438, (R)-2-(3-(3,3-difluoro-1-((4-methyl-4H-1,2,4-triazol-3-yl)methyl)cyclobutyl)phenyl)-6-((3-isopropyl-4-methylpiperazin-1-yl)methyl)-4-(trifluoromethyl)isoindolin-1-one], the IC50 [1] was 41 nM, the IC50 [2] was 32 nM and the “(fold-selectivity)” value [2] was “(0.80x)”.

With `Cn1cnnc1CC1(c2cccc(N3Cc4c(cc(CNC5(C)CCC5)c(F)c4C(F)(F)F)C3=O)c2)CC(F)(F)C1` [Compound 244, 2-(3-(3,3-difluoro-1-((4-methyl-4H-1,2,4-triazol-3-yl)methyl)cyclo-butyl)phenyl)-5-fluoro-6-(((1-methylcyclobutyl)amino)methyl)-4-(trifluoromethyl)isoindolin-1-one] the IC50 [1] was 15 nM, the IC50 [2] was 14 nM and the “(fold-selectivity)” value [2] was “(0.97x)”.

`Cn1cnnc1CC1(c2cccc(N3Cc4c(cc(CNC5CCCC5)cc4C(F)(F)F)C3=O)c2)CC(F)(F)C1` [Compound 364, 6-((cyclopentylamino)methyl)-2-(3-(3,3-difluoro-1-((4-methyl-4H-1,2,4-triazol-3-yl)methyl)cyclobutyl)phenyl)-4-(trifluoromethyl)isoindolin-1-one] was tested, and the IC50 [1] was 15 nM, the IC50 [2] was 9.7 nM and the “(fold-selectivity)” value [2] was “(0.63x)”.

`CC(C)[C@H]1CN(C)CCN1Cc1cc2c(c(C(F)(F)F)c1)CN(c1cccc(C3([C@H](F)c4n[nH]cc4C(F)(F)F)COC3)c1)C2=O` [Compound 376, 2-(3-(3-((S)-fluoro(4-(trifluoromethyl)-1H-pyrazol-3-yl)methyl)oxetan-3-yl)phenyl)-6-(((S)-2-isopropyl-4-methylpiperazin-1-yl)methyl)-4-(trifluoromethyl)isoindolin-1-one] was tested, and the IC50 [1] was 20000 nM, the IC50 [2] was 20000 nM and the “(fold-selectivity)” value [2] was “(1.0x)”.

For `CC(C)[C@H]1CNCCN1Cc1cc2c(c(C(F)(F)F)c1)CN(c1cccc(C3(Cc4nncn4C)CC(F)(F)C3)c1)C2=O` [Compound 219, (S)-2-(3-(3,3-difluoro-1-((4-methyl-4H-1,2,4-triazol-3-yl)methyl)cyclobutyl)phenyl)-6-((2-isopropylpiperazin-1-yl)methyl)-4-(trifluoromethyl)isoindolin-1-one], the IC50 [1] was 75 nM, the IC50 [2] was 84 nM and the “(fold-selectivity)” value [2] was 1.1x.

In the case of `CC(C)[C@H]1CN(C)CCN1Cc1cc2c(c(C(F)(F)F)c1)CN(c1cccc(C3(Cc4nncn4C(F)F)COC3)c1)C2=O` [Compound 266, (S)-2-(3-(3-((4-(difluoromethyl)-4H-1,2,4-triazol-3-yl)methyl)-oxetan-3-yl)phenyl)-6-((2-isopropyl-4-methylpiperazin-1-yl)methyl)-4-(trifluoromethyl)-isoindolin-1-one], the IC50 [1] is reported as 13 nM, the IC50 [2] is reported as 9.7 nM and the “(fold-selectivity)” value [2] is reported as “(0.76x)”.

With `Cn1cnnc1CC1(c2cccc(N3Cc4c(cc(CNC5(C)CCC5)cc4C(F)(F)F)C3=O)c2)CS(=O)(=O)C1` [Compound 242, 2-(3-(3-((4-methyl-4H-1,2,4-triazol-3-yl)methyl)-1,1-dioxido-thietan-3-yl)phenyl)-6-(((1-methylcyclobutyl)amino)methyl)-4-(trifluoromethyl)isoindolin-1-one] the IC50 [1] was 31 nM, the IC50 [2] was 41 nM and the “(fold-selectivity)” value [2] was “(1.3x)”.

In the case of `CC[C@@H](C)NCc1cc2c(c(C(F)(F)F)c1)CN(c1cccc(C3(Cc4nncn4C)CC(F)(F)C3)c1)C2=O` [Compound 370, (R)-6-((sec-butylamino)methyl)-2-(3-(3,3-difluoro-1-((4-methyl-4H-1,2,4-triazol-3-yl)methyl)cyclobutyl)phenyl)-4-(trifluoromethyl)isoindolin-1-one], the IC50 [1] is reported as 62 nM, the IC50 [2] is reported as 63 nM and the “(fold-selectivity)” value [2] is reported as “(1.0x)”.

With `CCC1(O)CN(Cc2cc3c(c(C(F)(F)F)c2)CN(c2cccc(C4([C@H](F)c5nncn5C)COC4)c2)C3=O)C1` [Compound 168, (S)-6-((3-ethyl-3-hydroxyazetidin-1-yl)methyl)-2-(3-(3-(fluoro(4-methyl-4H-1,2,4-triazol-3-yl)methyl)oxetan-3-yl)phenyl)-4-(trifluoromethyl)isoindolin-1-one] the IC50 [1] was 180 nM, the IC50 [2] was 380 nM and the “(fold-selectivity)” value [2] was 2.1x.

`CC(C)[C@H]1CN(CC(F)(F)F)CCN1Cc1cc2c(c(C(F)(F)F)c1)CN(c1cccc(C3([C@@H](F)c4nncn4C)COC3)c1)C2=O` [Compound 202, 2-(3-(3-((R)-fluoro(4-methyl-4H-1,2,4-triazol-3-yl)methyl)oxetan-3-yl)phenyl)-6-(((S)-2-isopropyl-4-(2,2,2-trifluoroethyl)piperazin-1-yl)methyl)-4-(trifluoromethyl)isoindolin-1-one] was tested, and the IC50 [1] was 150 nM, the IC50 [2] was 400 nM and the “(fold-selectivity)” value [2] was 2.6x.

`Cn1cnnc1[C@H](F)C1(c2cccc(N3Cc4c(cc(CN5CCC[C@H](CO)C5)cc4C(F)(F)F)C3=O)c2)COC1` [Compound 143, 2-(3-(3-((R)-fluoro(4-methyl-4H-1,2,4-triazol-3-yl)methyl)oxetan-3-yl)phenyl)-6-(((S)-3-(hydroxymethyl)piperidin-1-yl)methyl)-4-(trifluoromethyl)isoindolin-1-one] was tested, and the IC50 [1] was 29 nM, the IC50 [2] was 27 nM and the “(fold-selectivity)” value [2] was 0.92x.

— patent publication US20250230147A1, “LACTAMS AS CBL-B INHIBITORS” (Genentech, Inc., priority 2021, published 2025)
